Results on one compound are retold here after patent US7825104B2, “Methods and compositions for treating fungal infections” (Ramot at Tel Aviv University Ltd., priority 2001, dated 2010).

The conditions of data set [1]: cited from earlier work.
Another data set deals with Trichophyton rubrum. The experiment in a line: in vitro fungicidal/fungistatic test on T. rubrum cultures. The class given is cell-based. To be noted: concentration range of 5-10 mg/ml tested. The protocol: An in vitro test was designed for testing the fungicidal or fungistatic activity of PBA and its water-soluble derivatives. Cultures of T. rubrum were grown on 100 microliters SDB agar in a standard 96 well plate. Following an initial growth period of about 24 hours, each well was treated with 50-100 microliters of the reagent tested. Following an appropriate incubation period with or without washing, residual viability was estimated from comparison with appropriate controls, followed by secondary verification of viability tests by transfer of a part of the treated culture into a fresh well for optional recovery and growth. […] The photograph was taken four days after treatment.

The next data set has as its system Bacilus megaterium. The experiment in a line: in vitro effect on Bacillus megaterium (control, Cyt P-450 containing bacteria). The class given is cell-based. To be noted: solution of about 5-10 mg/ml.
The conditions of data set [2]: ORL-RAT; cited from earlier work.
A further data set concerns Candida parapsilosis. The experiment in a line: in vitro fungicidal/inhibitory effect on Candida parapsilosis. Format: cell-based.

In general, LD50 refers to the dose at which mortality reaches 50%. For the compound `OB(O)c1ccccc1` [PBA, Phenyl boronic acid], in data set [1], the solubility in water result is recorded as “reasonably soluble in water”. The “effect on T. rubrum” value with Trichophyton rubrum is listed as “fungicidal”. Moreover, in the data set on Bacilus megaterium, the “activity against Bacillus megaterium” value is “antibiotic activity”. In addition, the LD50 in data set [2] was 740 mg/kg. The “effect on C. parapsylosis” value with Candida parapsilosis (5 mg/ml) is “fungistatic”; in the data set with Candida parapsilosis (10 mg/ml), “fungicidal”.
